Records with an inconclusive call do not appear.

The test system of the assay is Clone20 osteoblast Shn3 3'UTR firefly luciferase, 24 h. In words: Schnurri-3 3'UTR-luciferase signal suppressors – cell-based, Clone20 osteoblasts, luminescence, dry powder, set 2, dose response (AID 743417).
In the case of `CCN1CCN(Cc2ccc(NC(=O)c3cc(NC(=O)c4cncc(-c5cccs5)c4)cc(OC)c3)cc2C(F)(F)F)CC1`, the AC50 was 9680 nM.

For `CC(C)(C)Nc1nc(-c2ccccn2)nc2ccccc12`, the AC50 was 1860 nM.

For `CCOC(=O)c1c2c(n(Cc3ccccc3)c1C)C(=O)C(=O)c1ccccc1-2`, the AC50 was 2300 nM.

As to `CN(C)CCNC(=O)c1ccc(Cl)c2cc3ccccc3nc12`, the AC50 is 9850 nM.

For `C=C1C(=O)OC2CC(C)C3C=CC(=O)C3(C)C(O)C12` (centres undefined), the AC50 is less than 260 nM.

Take `O=C(Nc1nc(-c2ccccn2)cs1)C1COc2ccccc2O1` (centres undefined): the AC50 is 5810 nM.

Turning to `Cc1nc2c(OCc3ccc(Cl)cc3Cl)cccn2c1N(C)CC1CC1`, the AC50 was 10000 nM.

Turning to `COc1ccc(C(=O)C(C)OC(=O)c2cccc(S(=O)(=O)Nc3cc(Cl)c(OC)cc3OC)c2)cc1` (centres undefined), the AC50 was 5540 nM.

Take `CC(C)(C)c1ccc(C(O)CCCN2CCC(C(O)(c3ccccc3)c3ccccc3)CC2)cc1` (centres undefined): the AC50 was 16700 nM.

Consider `NC(=O)CC(NC(=O)c1ccccc1)c1ccc(N2CCC(Cc3ccccc3)CC2)c([N+](=O)[O-])c1` (centres undefined), for which the AC50 is 2610 nM.

As for `C=C(CN(C)C)C(=O)c1ccc(C)cc1C`, the AC50 is 770 nM.

`O=c1c2ccccc2nc(/C=C/c2ccc([N+](=O)[O-])o2)n1-c1ccc(O)cc1`: the AC50 is 3240 nM.

In the case of `CC(C)(C)[C@@H]1COC(=O)[C@@H](NC(=O)OCC2c3ccccc3-c3ccccc32)C/C=C\C[C@@H](CC(=O)NCCO)C(=O)N1`, the AC50 was 22100 nM.

Turning to `CC(=O)NC(c1cc(Cl)c2cccnc2c1O)C(C)C` (centres undefined), the AC50 is 2960 nM.

As for `Cc1ccc(NC(=O)C2CCN(S(=O)(=O)c3ccc4c(c3)NC(=O)C(C)S4)CC2)cc1C` (centres undefined), the AC50 is 2610 nM.

As to `COc1ccc(CCNc2ncnc3sc(C)cc23)cc1OC`, the AC50 was less than 260 nM.

As for `COc1cc(OC)c(OC)cc1CNc1cc(C)ccc1OC`, the AC50 was 18100 nM.

As for `COc1cccc(C2CC(c3ccc(C)cc3)=NN2C(=O)c2ccccc2F)c1OC` (centres undefined), the AC50 was 36000 nM.

`N#CC(c1ccc(Cl)cc1)c1ccc2c(C(F)(F)F)cc(C(F)(F)F)nc2n1` (centres undefined): the AC50 was 487 nM.

In the case of `CC(C)(C)c1cc(C(=O)N/N=C/c2ccccc2O)n(-c2ccccc2)n1`, the AC50 is 2250 nM.

Consider `CC(C)=CCC/C(C)=C/CNC(=O)C[C@H]1C[C@H](C(=O)N(C(C)C)C(C)C)[C@@]2(C)c3[nH]c4cc(CCC(=O)N(C)C)ccc4c3CCN2C1=O`, for which the AC50 is 2050 nM.

Consider `O=S(=O)(c1ccccc1)N1CCN(c2cc(-c3ccccc3)nc3ncnn23)CC1`, for which the AC50 was 1120 nM.

For `COc1cccc(OCCn2cc(C(C)=O)c3ccccc32)c1`, the AC50 was 1850 nM.

Consider `CCCCNc1c(-c2ccc(OC)c(Sc3ccc(OC)cc3)c2)nc2ccccn12`, for which the AC50 is 821 nM.

With `O=C(Nc1ccc([N+](=O)[O-])cc1)C(=O)Nc1cccc(C(=O)O)c1`, the AC50 was 4210 nM.

As to `CCCS(=O)(=O)Nc1ccc(Nc2c3ccccc3nc3ccccc23)c(OC)c1`, the AC50 is 3390 nM.

Turning to `O=C(Nc1cccc(C(F)(F)F)c1)Nc1ccc(N2CCCC2)c(S(=O)(=O)Nc2ccccc2Cl)c1`, the AC50 is 4420 nM.

Take `CC(=O)OC1(C)CC(C)C(=O)C(C(O)CC2CC(=O)NC(=O)C2)C1` (centres undefined): the AC50 is less than 260 nM.

For `Nc1cc(Cl)c2nonc2c1[N+](=O)[O-]`, the AC50 was 5370 nM.

Turning to `O=C(Nc1ccc(Cl)cc1)Nc1ccc(N2CCCC2)c(S(=O)(=O)Nc2ccccc2Cl)c1`, the AC50 is 5200 nM.

Regarding `CC(C)CC(NC(=O)c1ccc(Cl)cc1)C(=O)OCC(=O)c1ccc2c(c1)NC(=O)CO2` (centres undefined), the half-maximal activity concentration (AC50) is 4010 nM.

As to `CCOc1ccc(N(C)S(=O)(=O)c2cc(-c3cc(C)no3)ccc2C(C)C)cc1`, the AC50 is 4130 nM.

Turning to `CCOc1cc(N2CCOCC2)c(OCC)cc1NC(=O)COc1cccc2cccnc12`, the AC50 was 2410 nM.

Consider `CN1/C(=C\C(=O)CN2C(=O)NC3(CCCCCC3)C2=O)C(C)(C)c2ccccc21`, for which the AC50 is 2660 nM.

With `COc1ccc(-n2c(C)cc(C(=O)CSc3nnc(-c4cccs4)o3)c2C)cc1`, the AC50 is 5030 nM.

On to `CC(C)(C)n1nnnc1C(c1ccc(C(F)(F)F)cc1)N(Cc1ccc(F)cc1)Cc1ccco1` (centres undefined), for which the AC50 is 10100 nM.

On to `CCOC(=O)c1cnc(-n2nc(C)cc2C)nc1NCc1ccc2c(c1)OCO2`, for which the AC50 was 8740 nM.

Consider `Cc1ccc(C(=O)Nc2nc(-c3ccccn3)cs2)cc1S(=O)(=O)N1CCOCC1`, for which the half-maximal activity concentration (AC50) is 838 nM.

Turning to `Cc1ccc(NS(=O)(=O)c2ccc(C(=O)NC3CCN(Cc4ccccc4)CC3)cc2)cc1`, the AC50 is 4690 nM.

With `CC1CCN(c2ccccc2NC(=S)NC(=O)c2ccc(-c3cccc([N+](=O)[O-])c3)o2)CC1`, the AC50 was 3070 nM.

In the case of `Cc1ccccc1NC(=O)CSc1nc2ccccc2c(=O)n1C`, the AC50 was 7640 nM.

For `CCc1ccc(Nc2n[n+](-c3ccccc3)c(-c3c(Cl)cccc3Cl)s2)cc1`, the AC50 was 5400 nM.

In the case of `COc1cccc(CNc2nc(NCC3CC3)nc3ccsc23)c1OC`, the AC50 is 4480 nM.

On to `O=C(OC12CC3CC(CC(C3)C1)C2)c1ccc(NCc2cc(O)ccc2O)cc1`, for which the AC50 is 2330 nM.

On to `CC1=C(C#N)C(C(F)(F)F)(C(F)(F)F)N=C(c2ccco2)N1`, for which the AC50 was 7720 nM.

In the case of `C[C@@H]1C[C@@H]([C@H](O)CC2CC(=O)NC(=O)C2)C(=O)[C@@H](C)C1`, the AC50 is 345 nM.

With `O=C(Nc1ccc(Cl)cc1)/C(=C/c1cccc(O)c1)c1nc2ccccc2s1`, the AC50 is 3530 nM.

As for `OCCCNc1nccc(-c2cc(Nc3cccc(Cl)c3)ncn2)n1`, the AC50 is 2610 nM.

For the molecule `Cc1ccc(CS(=O)(=O)c2ncc(Cl)c(C(=O)Nc3ccc(OC(F)F)cc3)n2)cc1`, the AC50 was 2340 nM.

For `CC[C@H]1CN2CCc3cc(OC)c(OC)cc3[C@@H]2C[C@@H]1C[C@H]1NCCc2cc(OC)c(OC)cc21`, the AC50 was less than 260 nM.

`COc1ccc(NS(=O)(=O)c2ccc(-c3cnc(C4CC4)o3)cc2)cc1OC`: the AC50 was 1330 nM.

Regarding `CC(C)=CCc1cc([C@@H]2COc3c(ccc4c3C=CC(C)(C)O4)C2)c(O)cc1O`, the AC50 was 7540 nM.

With `COc1cc(CSc2nnnn2-c2ccc(C)cc2)cc(OC)c1OC`, the AC50 is 1020 nM.

On to `COc1ccccc1-c1c(-c2ccc(O)cc2O)n[nH]c1C(F)(F)F`, for which the AC50 was 708 nM.

Take `CCCCC(=O)NC(c1ccc(N(CC)CC)cc1)c1ccc2cccnc2c1O` (centres undefined): the AC50 was 1120 nM.

In the case of `NS(=O)(=O)c1ccc(CCNCc2cc(Br)ccc2OCc2ccccc2)cc1`, the AC50 was 2920 nM.

As to `CCC(=O)NC(c1ccc(C)cc1)c1ccc2cccnc2c1O` (centres undefined), the AC50 is 704 nM.

As for `O=C(c1cc2sccc2n1Cc1ccc(F)cc1)N1CCN(c2nc3ccccc3s2)CC1`, the AC50 was 1360 nM.

For `CC1Cc2cc(S(=O)(=O)N3CCC(C(=O)N4CCN(c5ccccc5F)CC4)CC3)ccc2N1C(=O)C1CC1` (centres undefined), the AC50 is 1650 nM.

On to `C#CC(=O)N(c1cccc(OC)c1)C(C(=O)NC1CCCC1)c1cccs1` (centres undefined), for which the half-maximal activity concentration (AC50) is 3800 nM.

On to `CN(C)S(=O)(=O)c1ccc(Oc2ccc(S(=O)(=O)N(C)C)cc2)cc1`, for which the AC50 is 3040 nM.

`CC(C)=CCC/C(C)=C/CNC(=O)C[C@H]1C[C@H](C(=O)N2CCOCC2)[C@@]2(C)c3[nH]c4cc(CCC(=O)N(C)C)ccc4c3CCN2C1=O`: the half-maximal activity concentration (AC50) was 1110 nM.

Regarding `OC1(c2ccc(OC(F)F)cc2)CSC(=Nc2cccnc2)N1C1CC1` (centres undefined), the AC50 was 5400 nM.

`O=C(Cn1cc(C(=O)c2ccco2)c2ccccc21)Nc1ccccc1F`: the AC50 was 2600 nM.

As a reminder, the AC50 is the concentration giving half of the maximal activity seen.

The values above are taken from PubChem BioAssay AID743417 (Broad Institute, 2014).
